In patent US8546421B1, “Oncogenic-RAS-signal dependent lethal compounds” (The Trustees of Columbia University in the City of New York, priority 2007, dated 2013):
Several values for one entry are separate records, joined by “and”; a condition that tells them apart may be missing. Equal values may be shown once. Where a name gives a salt, the structure may show the parent alone.

Assays:
[1] = system: BJeH, BJeHLT, BJeLR and DRD cells; test: Cell growth inhibition by stereoisomers of Compound 27; details: for cell growth inhibition (in words): BJeH, BJeHLT, BJeLR, DRD cells
[2] = system: BJ cell system (BJ-TERT, BJ-TERT/LT/ST, BJ-TERT/LT/ST/RAS^V12, DRD cells); test: Alamar blue potency and selectivity in the engineered BJ cell system; details: for growth inhibitory activity and selectivity in the BJ cell system (in words): alamar blue, structural analogs and hits; for activity of analogs of Compound 27, percent growth inhibition (in words): cell viability assay, SAR of Compound 27
Protocol: Empty “step-daughter plates” were filled with 50 μL DMEM, except for columns 3 and 13, where 100 μL of hit compound solution were cherry-picked from daughter plates. After compound transfer, 2-fold dilution series across columns 3 through 12 and columns 13 through 22 was made by transferring 50 μL of compound solution to the next column successively (10-point dilution series), with extensive mixing. Hit-picking and 2-fold dilution series were carried out using Biomek FX Span-8 module (Beckman Coulter). Assay plates were prepared by seeding 1,000 BJ-TERT, BJ-TERT/LT/ST, and BJ-TERT/LT/ST/RAS^V12 cells per well in 36 μL growth medium. Cells in assay plates were treated with compounds from step-daughter plates by transferring 4 μL. The final concentration of the compound was 5.33 μg/mL to 0.01 μg/mL in this 10-point, 2-fold dilution series. Assay plates were returned to the culture incubator and maintained for 48 hours before adding alamar blue.
Fresh daughter plates were made from the mother plate and cherry-picked hits from the first round, 2-fold dilution series experiment as described above. Assay plates were prepared by seeding 1,000 BJ-TERT, BJ-TERT/LT/ST, BJ-TERT/LT/ST/RAS^V12 or BJ-TERT/p53DD/CDK4/cyclinD1/ST/RAS^V12 (DRD) cells per well in 32 μL growth media. Cells in the assay plates were treated with compounds from the step-daughter plate by transferring 8 μL solution. The final concentration of the compound was 10.66 μg/mL to 0.02 μg/mL in a 10-point, 2-fold dilution series manner. Assay plates were returned to the culture incubator and maintained for 48 hours before adding alamar blue.
Cells were seeded in 384-well assay plates, treated with candidate compounds, and incubated in the culture incubator in 40 μL culture volume per well. […] Plates were incubated further for 16 hours to allow reduction of alamar blue, which results in the generation of red fluorescence. The fluorescence intensity was determined using a Victor 3 plate reader (Perkin Elmer) with a 535 nm excitation filter and a 590 nm emission filter.
In the subsequent two-fold dilution series testing, selectivity was calculated as the ratio of GI50 values in BJ-TERT/LT/ST and BJ-TERT/LT/ST/RAS^V12 cells. […] DRD cells are also derived from BJ primary cells and the effects of mutations in both lines should be similar.

[3] = system: cellular iron in BJ-TERT/LT/ST/RAS^V12 cells; test: Cellular iron level by flow cytometry with Phen Green SK; assay type: cell-based, human; details: 24 hours treatment
Protocol: Cells were seeded in 6-well plates (200,000 cells per well) in BJ medium. The next day, the cell monolayer was washed with phosphate buffered saline (“PBS”) twice and stained with 5 μM of Phen Green SK, diacetate (Molecular Probe, cat.#P14313) in PBS by incubating the plate for 15 minutes in a culture incubator. Cells were released with trypsin/EDTA, harvested in 2 mL PBS, and centrifuged at 1,000 rpm for 5 min. The cell pellet was re-suspended in 1 mL of PBS, the cell suspension was transferred to disposable FACS tubes, and the fluorescence profile of the sample was monitored using a FACSCalibur system (BD Biosciences).

HT1080 = test: Alamar Blue assay, additional cell lines; assay type: cell-based, human
Description: (§1) The results of this additional testing are summarized in Tables 7-10 (no additional cell lines were identified as sensitive for Compound 3). […] The tumor type, cell line, maximum percentage inhibition, the concentration of compound required to inhibit cell growth by 50%, and RAS mutation (if any) are also summarized.

[4] = system: BJELR (Foreskin fibroblasts w/ TERT, LT, ST, RAS); test: Alamar Blue assay, additional cell lines; assay type: cell-based, human
Description: as §1

Calu-1 = test: Alamar Blue assay, additional cell lines; assay type: cell-based, human; details: Calu-1, Non-small cell lung carcinoma, Alamar Blue
Description: as §1

HL-60(TB) [5] = test: cells; details: Homo sapiens
K-562 = test: NCI60 anti-cancer screening
ACHN = test: NCI60 anti-cancer screening
HL-60(TB) [6] = details: Leukemia
UO-31 = test: NCI60 anti-cancer screening
CAKI-1 = test: NCI60 anti-cancer screening; details: Homo sapiens
TC71 = test: Alamar Blue assay, additional cell lines; assay type: cell-based
Description: as §1

TC32 = test: Alamar Blue assay, additional cell lines; assay type: cell-based
Description: as §1

MES-CA = test: Alamar Blue assay, additional cell lines; assay type: cell-based; details: Uterine sarcoma
Description: as §1

U-2 OS = test: Alamar Blue assay, additional cell lines; assay type: cell-based; details: Osteosarcoma
Description: as §1

U973 = test: Alamar Blue assay, additional cell lines; assay type: cell-based
Description: as §1

HeLa = test: Alamar Blue assay, additional cell lines; assay type: cell-based; details: Cervical carcinoma
Description: as §1

SK-LMS-1 = test: Alamar Blue assay, additional cell lines; assay type: cell-based; details: Leimyosarcoma, vulva
Description: as §1

SK-UT = test: Alamar Blue assay, additional cell lines; assay type: cell-based; details: Uterine, mixed mesodermal tumor
Description: as §1

SK-ES-1 = test: Alamar Blue assay, additional cell lines; assay type: cell-based; details: anaplastic osteosarcoma
Description: as §1

RXF393 = test: NCI60 anti-cancer screening
786-0 = test: NCI60 anti-cancer screening
[7] = system: Calu-1 cells expressing shRNAs targeting HRAS, NRAS or KRAS; test: Drug sensitivity after shRNA knockdown of RAS; assay type: cell-based, human; details: alamar blue
Protocol: On day one, 3×10^5 Calu-1 cells or 2×10^5 HT1080 cells were seeded in 10-cm dishes; on day 2, frozen virus stock was thawed at 37° C., hexadimethrine bromide (polybrene) (Sigma, cat.#H9268) was added to the virus solution at a final concentration of 8 μg/mL and growth media from cell culture was replaced with the virus/polybrene mixture. The culture was returned to the tissue culture incubator for 2 hours, with rocking of the dishes every 30 min in order to prevent drying. After 2 h, 10 mL growth medium was added, the culture was incubated for 2 days, and cells stably expressing shRNA were selected by adding puromycin (Sigma, cat.#P9620) at a final concentration of 1.5 μg/mL.
On the day of experiment, assay plates were prepared by seeding 3,000 HT1080, HT1080-pLKO, HT1080-TfR1 KD, Calu-1, Calu-1-pLKO, or Calu-1-509 cells per well in 36 μL of growth media to black, clear bottom 384-well plates. Also, assay plates were prepared by seeding 1,500 shRNA infected HT1080 or Calu-1 cells per well. Cells in assay plates were treated with each lethal compound in a 2-fold dilution series by transferring 4 μL solution from a 10× lethal plate of Erastin, Compound 3, Compound 27, or Compound 36. […] Percent growth inhibition (% GI) was calculated using fluorescence intensity values.

[8] = system: PARP-1 cleavage in BJ-TERT/LT/ST/RAS^V12 cells; test: Western blot of PARP-1 cleavage upon compound treatment; assay type: cell-based, human; details: Western blot with anti-PARP-1 antibody
Protocol: 2×10^6 BJ-TERT/LT/ST/RAS^V12 cells were seeded in 10 cm dishes and treated with 1 μM staurosporine, 10 μg/mL erastin, 20 μg/mL Compound 3, and 1 μg/mL Compound 27 for 16 h. Both dying cells and live cells in each 10 cm dish were harvested and collected in the same 15 mL tubes by centrifuging cell suspension at 1,000 rpm for 5 min. Cell pellets were washed three times with PBS and cells were lysed in 200 μL of denaturing lysis buffer (50 mM HEPES KOH [pH 7.4], 40 mM NaCl, 2 mM EDTA, 1.5 mM Na3VO4, 50 mM NaF, 10 mM sodium pyrophosphate, 10 mM sodium β-glycerophosphate, 0.5% Triton X-100, and protease inhibitor tablet [Roche, cat.#11836170001]). Protein content was quantified using a Bio-Rad protein assay reagent (Bio-Rad, cat.#500-00006). Equal amounts of protein were resolved on SDS-polyacrylamide gels. The electrophoresed proteins were transblotted onto a PVDF membrane, blocked with 5% milk, and incubated with rabbit primary antibodies specific to: PARP (Santa Cruz, cat.#sc-7150), cleaved caspase-3 (Cell Signaling Technology, cat.#9661) overnight at 4° C. The membrane was then incubated in IRDye 800 goat anti-rabbit antibody (Li-cor Bioscience cat.#926-32211) at 1:3,000 dilutions for 45 min at room temperature. After washing off the unbound antibodies, membranes were scanned using the Odyssey™ Imaging System (Li-cor Bioscience).

SMILES: COC(=O)c1ccc([C@@H]2c3[nH]c4ccccc4c3C[C@H](C(=O)OC)N2C(=O)CCl)cc1 [1R,3R Compound 27]
- cell growth inhibition (in words) [1]: no appreciable growth inhibition

SMILES: COC(=O)c1ccc([C@H]2c3[nH]c4ccccc4c3C[C@H](C(=O)OC)N2C(=O)CCl)cc1 [1S,3R Compound 27]
- cell growth inhibition (in words) [1]: strong cell growth inhibition in two cell lines
- EC50 ([1]; Homo sapiens): ~0.005 µg/mL and ~10 nM
- selective lethality (in words) ([1]; mutant HRAS BJ tumor cell lines versus isogenic cell lines lacking oncogenic HRAS): selective lethality towards BJ tumor cell lines containing mutant HRAS

SMILES: COC(=O)c1ccc([C@@H]2c3[nH]c4ccccc4c3C[C@@H](C(=O)OC)N2C(=O)CCl)cc1 [(1R,3S) Compound 27]
- cell growth inhibition (in words) [1]: no appreciable growth inhibition

SMILES: COC(=O)c1ccc([C@H]2c3[nH]c4ccccc4c3C[C@@H](C(=O)OC)N2C(=O)CCl)cc1 [(1S,3S) Compound 27]
- cell growth inhibition (in words) [1]: no appreciable growth inhibition

SMILES: COC(=O)C1=C(C)NC2=C(C(=O)CC(c3ccc(Cl)cc3)C2)C1c1ccccc1F (stereo not shown) [Compound 5]
- growth inhibitory activity and selectivity in the BJ cell system (in words) [2]: varied potency and selectivity

SMILES: COC(=O)C1Cc2c([nH]c3ccccc23)C(C)(C)N1C(=O)CCl (stereo not shown) [Compound 28]
- growth inhibitory activity and selectivity in the BJ cell system (in words) [2]: virtually the same activity and selectivity

SMILES: O=C(NN=Cc1c(O)ccc2ccccc12)c1ccncc1 [Compound 311]
- change of cellular iron level (PGSK fluorescence) [3]: induced a peak shift in the fluorescence profile

SMILES: CC(=O)N(O)CCCCCNC(=O)CCC(=O)N(O)CCCCCNC(=O)CCC(=O)N(O)CCCCCN [DFOM, deferoxamine mesylate]
- change of cellular iron level (PGSK fluorescence) [3]: induced a peak shift in the fluorescence profile

SMILES: CCOc1ccccc1-n1c(C(C)N2CCN(C(=O)COc3ccc(Cl)cc3)CC2)nc2ccccc2c1=O (stereo not shown) [Erastin, reference compound]
- Maximum Inhibition % (HT1080; Fibrosarcoma): 98%
- GI50 (HT1080; Homo sapiens, HT-1080, Fibrosarcoma): 2 µM
- Maximum Inhibition % [4]: 100%
- GI50 ([4]; Homo sapiens): 6 µM
- Maximum Inhibition % (Calu-1): 100%
- GI50 (Calu-1; Homo sapiens): 6 µM
- GI50 (HL-60(TB) [5]; HL-60): 2.26 µM
- CC50 (HL-60(TB) [5]; HL-60, read-out: LC 50%): > 10 µM
- GI50 (K-562; Homo sapiens, K562): 3.39 µM
- CC50 (K-562; Homo sapiens, K562, read-out: LC 50%): > 10 µM
- GI 100% (K-562; K-562, Leukemia): >10 µM
- GI50 (ACHN; Homo sapiens): 0.979 µM
- CC50 (ACHN; Homo sapiens, read-out: LC 50%): 6.3 µM
- GI 100% (ACHN; Renal Cancer): 2.5 µM
- GI 100% (HL-60(TB) [6]): >10 µM
- GI50 (UO-31; Homo sapiens, UO-31): 0.373 µM
- CC50 (UO-31; Homo sapiens, UO-31, read-out: LC 50%): > 10 µM
- GI 100% (UO-31; UO-31, Renal Cancer): 1.63 µM
- GI50 (CAKI-1; CAKI-1): 2.15 µM
- CC50 (CAKI-1; CAKI-1, read-out: LC 50%): > 10 µM
- Maximum Inhibition % (TC71; Ewing sarcoma): 92%
- GI50 (TC71; TC-71, Ewing sarcoma): 10 µM
- GI50 (TC32; Homo sapiens, TC-32, Peripheral neuroepithelioma): 8 µM
- Maximum Inhibition % (TC32; Peripheral neuroepithelioma): 88%
- GI50 (MES-CA): 3 µM
- Maximum Inhibition % (MES-CA): 100%
- GI50 (U-2 OS; Homo sapiens, U2OS): 6 µM
- Maximum Inhibition % (U-2 OS): 96%
- Maximum Inhibition % (U973; Acute myelogenous leukemia): 73%
- GI50 (U973; U-973, Acute myelogenous leukemia): 10 µM
- Maximum Inhibition % (HeLa): 94%
- GI50 (HeLa; Homo sapiens): 0.6 µM
- GI50 (SK-LMS-1; Homo sapiens): 6 µM
- Maximum Inhibition % (SK-LMS-1): 100%
- GI50 (SK-UT): 4 µM
- Maximum Inhibition % (SK-UT): 73%
- Maximum Inhibition % (SK-ES-1; Ewing sarcoma): 98%
- GI50 (SK-ES-1; Homo sapiens, SK-ES1, Ewing sarcoma): 7 µM
- GI50 (RXF393; Homo sapiens, RXF 393): 2.16 µM
- CC50 (RXF393; Homo sapiens, RXF 393, read-out: LC 50%): > 10 µM
- GI 100% (RXF393; RXF393, Renal Cancer): 7.2 µM
- GI 100% (786-0; 786-0, Renal Cancer): 4.12 µM
- GI50 (786-0; Homo sapiens, 786-0): 2.03 µM
- CC50 (786-0; Homo sapiens, 786-0, read-out: LC 50%): 8.36 µM

SMILES: C=CC(=O)N1C(C(=O)OC)Cc2c([nH]c3ccccc23)C1c1ccc(C(=O)OC)cc1 (stereo not shown) [acryl analog]
- activity of analogs of Compound 27, percent growth inhibition (in words) [2]: insufficiently active

SMILES: COC(=O)C1Cc2c([nH]c3ccccc23)C(c2ccc(NC(=O)CCCCCNC(=O)CCCCC3SCC4NC(=O)NC43)cc2)N1C(=O)CCl (stereo not shown) [biotinylated analog of Compound 27]
- activity of analogs of Compound 27, percent growth inhibition (in words) [2]: not sufficiently active

SMILES: CN[C@@H]1C[C@H]2O[C@@](C)([C@@H]1OC)n1c3ccccc3c3c4c(c5c6ccccc6n2c5c31)C(=O)NC4 [staurosporine, reference compound]
- sensitivity of Calu-1 cells after RAS shRNA compared with parental cells [7]: loss of sensitivity to staurosporine was not observed
- PARP-1 cleavage / type of cell death [8]: showed PARP-1 cleavage
